Among the data in US11014912B2, “Cyanopyrrolidine derivatives with activity as inhibitors of USP30” (MISSION THERAPEUTICS LIMITED, priority 2016, dated 2021) are IC50 values, retold here.

Each structure is given as a SMILES string.

The term IC50 denotes the concentration needed to halve the response being measured.

Chain of USP30 (Q70CQ3 57-517): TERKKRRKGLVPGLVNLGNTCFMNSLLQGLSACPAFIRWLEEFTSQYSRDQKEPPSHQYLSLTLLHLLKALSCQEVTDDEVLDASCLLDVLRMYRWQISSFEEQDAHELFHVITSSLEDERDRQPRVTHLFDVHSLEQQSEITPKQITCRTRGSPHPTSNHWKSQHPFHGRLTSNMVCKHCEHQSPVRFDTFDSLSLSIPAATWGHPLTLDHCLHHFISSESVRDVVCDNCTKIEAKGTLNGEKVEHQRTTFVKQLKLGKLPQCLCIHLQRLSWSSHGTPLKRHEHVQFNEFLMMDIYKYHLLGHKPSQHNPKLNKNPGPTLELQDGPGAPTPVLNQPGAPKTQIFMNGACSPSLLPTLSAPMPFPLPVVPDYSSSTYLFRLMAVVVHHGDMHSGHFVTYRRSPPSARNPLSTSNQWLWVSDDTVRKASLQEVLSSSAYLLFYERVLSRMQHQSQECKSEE

The test deals with USP30 (Homo sapiens (Human), UniProt Q70CQ3). Briefly: USP30 biochemical IC50 assay. The conditions noted are these: fluorescence polarisation, TAMRA labelled peptide linked to ubiquitin substrate; enzyme and compound incubated 30 min at room temp; read after 2 h; read-out: IC50 range. As to the method:
USP30 Biochemical IC50 Assay
Dilution plates were prepared at 21 times the final concentration (2100 μM for a final concentration of 100 μM) in 50% DMSO in a 96-well polypropylene V-bottom plate (Greiner #651201). A typical 8-point dilution series would be 100, 30, 10, 3, 1, 0.3, 0.1, 0.03 μM final. Reactions were performed in duplicate in black 384 well plates (small volume, Greiner 784076) in a final reaction volume of 21 μl. Either 1 μl of 50% DMSO or diluted compound was added to the plate. USP30 was diluted in reaction buffer (40 mM Tris, pH 7.5, 0.005% Tween 20, 0.5 mg/ml BSA, 5 mM beta-mercaptoethanol) to the equivalent of 0.05 μl/well and 10 μl of diluted USP30 was added to the compound. Enzyme and compound were incubated for 30 min at room temp. Reactions were initiated by the addition of 50 nM of TAMRA labelled peptide linked to ubiquitin via an iso-peptide bond as fluorescence polarisation substrate. Reactions were read immediately after addition of substrate and following a 2 h incubation at room temperature. Readings were performed on a Pherastar Plus (BMG Labtech). A Excitation 540 nm; A Emission 590 nm.
In general terms: Polarisation of emitted light reports the rotation of a fluorescent probe.
For `N#CN1CCC(CC(=O)N2CC(c3ccc(O)cc3)C2)C1` (stereo not drawn) [Example 58, 3-(2-(3-(4-hydroxyphenyl)azetidin-1-yl)-2-oxoethyl)pyrrolidine-1-carbonitrile], the IC50 was 100 to 1000 nM.
`CN(Cc1cc(-c2ccccc2)[nH]n1)C(=O)C=C1CCN(C#N)C1` [Example 30, 2-(1-Cyanopyrrolidin-3-ylidene)-N-methyl-N-((5-phenyl-1H-pyrazol-3-yl)methyl)acetamide]: the IC50 lay in the range of 100 to 1000 nM.
The result for `CN(Cc1cccc(-c2ccncc2)c1)C(=O)C=C1CCN(C#N)C1` [Example 26, 2-(1-Cyanopyrrolidin-3-ylidene)-N-methyl-N-(3-(pyridin-4-yl)benzyl)acetamide] reads 100 to 1000 nM.
With `CN(Cc1cc(-c2ccccc2)on1)C(=O)C=C1CCN(C#N)C1` [Example 25, 2-(1-Cyanopyrrolidin-3-ylidene)-N-methyl-N-((5-phenylisoxazol-3-yl)methyl)acetamide], the IC50 fell in the range of 100 to 1000 nM.
As for `N#CN1CCC(CC(=O)Nc2cc3ccccn3n2)C1` (stereo not drawn) [Example 44, 2-(1-cyanopyrrolidin-3-yl)-N-(pyrazolo[1,5-a]pyridin-2-yl)acetamide], the figure is 1000 to 10000 nM; as for `Cc1cc(C2CN(C(=O)CC3CCN(C#N)C3)C2)ccn1` (stereo not drawn) [Example 15, 3-(2-(3-(2-Methylpyridin-4-yl)azetidin-1-yl)-2-oxoethyl)pyrrolidine-1-carbonitrile], 1000 to 10000 nM.
In the case of `N#CN1CCC(CC(=O)Nc2cc(C(F)(F)F)ccn2)C1` (stereo not drawn) [Example 45, 2-(1-cyanopyrrolidin-3-yl)-N-(4-(trifluoromethyl)pyridin-2-yl)acetamide], the IC50 fell in the range of 100 to 1000 nM.
As for `C[C@H](C(=O)Nc1cc(-c2cccc(Cl)c2)no1)[C@@H]1CCN(C#N)C1` [Example 50, (S)-N-(3-(3-chlorophenyl)isoxazol-5-yl)-2-((S)-1-cyanopyrrolidin-3-yl)propanamide], the IC50 is 1 to 10 nM.
As for `COc1ccc(C2CN(C(=O)C[C@@H]3CCN(C#N)C3)C2)cc1` [Example 38, (S)-3-(2-(3-(4-Methoxyphenyl)azetidin-1-yl)-2-oxoethyl)pyrrolidine-1-carbonitrile], the figure is 10 to 100 nM; as for `N#Cc1cccc(-c2cc(NC(=O)C[C@H]3CCN(C#N)C3)on2)c1` [Example 51, (R)-N-(3-(3-cyanophenyl)isoxazol-5-yl)-2-(1-cyanopyrrolidin-3-yl)acetamide], 1 to 10 nM.
As for `N#CN1CCC(CC(=O)NCCc2ccccc2)C1` (stereo not drawn) [Example 11, 2-(1-Cyanopyrrolidin-3-yl)-N-phenethylacetamide], the figure is 1000 to 10000 nM; as for `N#CN1CCC(CC(=O)Nc2cc(-c3ccccc3)no2)C1` (stereo not drawn) [Example 6, 2-(1-Cyanopyrrolidin-3-yl)-N-(3-phenylisoxazol-5-yl)acetamide], 100 to 1000 nM; as for `N#CN1CC[C@H](CC(=O)Nc2cc(-c3cccc(Cl)c3)no2)C1` [Example 36, (R)—N-(3-(3-Chlorophenyl)isoxazol-5-yl)-2-(1-cyanopyrrolidin-3-yl)acetamide], 1 to 10 nM.
For the compound `C[C@@H](C(=O)Nc1cc(-c2cccc(Cl)c2)no1)[C@@H]1CCN(C#N)C1` [Example 53, (R)-N-(3-(3-chlorophenyl)isoxazol-5-yl)-2-((S)-1-cyanopyrrolidin-3-yl)propanamide], the IC50 lay in the range of 10 to 100 nM.
On to `COc1ccc(C2CN(C(=O)C[C@@H]3CCN(C#N)C3)C2)cc1-c1cnn(C)c1` [Example 67, (S)-3-(2-(3-(4-methoxy-3-(1-methyl-1H-pyrazol-4-yl)phenyl)azetidin-1-yl)-2-oxoethyl)pyrrolidine-1-carbonitrile], for which the 50% inhibitory concentration (IC50) lay within 10 to 100 nM.
Regarding `N#Cc1cccc(-c2nnc(NC(=O)CC3CCN(C#N)C3)o2)c1` (stereo not drawn) [Example 49, N-(5-(3-cyanophenyl)-1,3,4-oxadiazol-2-yl)-2-(1-cyanopyrrolidin-3-yl)acetamide], the IC50 lay in the range of 100 to 1000 nM.
The result for `N#CN1CCC(=CC(=O)Nc2ccc3ncsc3c2)C1` [Example 21, N-(Benzo[d]thiazol-6-yl)-2-(1-cyanopyrrolidin-3-ylidene)acetamide] reads 1000 to 10000 nM; that for `N#CN1CC[C@@H](CC(=O)Nc2cc(-c3ccc(Cl)cc3)no2)C1` [Example 34, (S)—N-(3-(4-Chlorophenyl)isoxazol-5-yl)-2-(1-cyanopyrrolidin-3-yl)acetamide], 100 to 1000 nM.
As to `CC(C(=O)N1CC(c2ccc(C#N)cc2)C1)[C@@H]1CCN(C#N)C1` (single isomer, unassigned) [Example 62], the IC50 was in the range of 100 to 1000 nM.
The result for `N#CN1CCC(=CC(=O)N2CC(c3ccccc3)C2)C1` [Example 18, 3-(2-Oxo-2-(3-phenylazetidin-1-yl)ethylidene)pyrrolidine-1-carbonitrile] reads 100 to 1000 nM; that for `N#CN1CCC(CC(=O)Nc2ccc(C(F)(F)F)nc2)C1` (stereo not drawn) [Example 4, 2-(1-Cyanopyrrolidin-3-yl)-N-(6-(trifluoromethyl)pyridin-3-yl)acetamide], 1000 to 10000 nM; that for `N#CN1CC[C@@H](CC(=O)Nc2nnc(-c3ccccc3)s2)C1` [Example 64, (S)-2-(1-cyanopyrrolidin-3-yl)-N-(5-phenyl-1,3,4-thiadiazol-2-yl)acetamide], 100 to 1000 nM.
As for `COc1ccc(C2CN(C(=O)C=C3CCN(C#N)C3)C2)cc1` [Example 17, 3-(2-(3-(4-Methoxyphenyl)azetidin-1-yl)-2-oxoethylidene)pyrrolidine-1-carbonitrile], the figure is 100 to 1000 nM; as for `N#CN1CC[C@@H](CC(=O)Nc2nnc(-c3cccc(Cl)c3)o2)C1` [Example 48, (S)-N-(5-(3-chlorophenyl)-1,3,4-oxadiazol-2-yl)-2-(1-cyanopyrrolidin-3-yl)acetamide], 100 to 1000 nM; as for `COc1ccc(C2CN(C(=O)C[C@@H]3CCN(C#N)C3)C2)cc1-c1ccnn1C` [Example 40, (S)-3-(2-(3-(4-Methoxy-3-(1-methyl-1H-pyrazol-5-yl)phenyl)azetidin-1-yl)-2-oxoethyl)-pyrrolidine-1-carbonitrile], 10 to 100 nM.
As to `N#CN1CCC(=CC(=O)Nc2ccc(Oc3ccccc3)cc2)C1` [Example 22, 2-(1-Cyanopyrrolidin-3-ylidene)-N-(4-phenoxyphenyl)acetamide], the IC50 was 10 to 100 nM.
As for `CN(Cc1ccc(Cl)c(Cl)c1)C(=O)C=C1CCN(C#N)C1` [Example 33, 2-(1-Cyanopyrrolidin-3-ylidene)-N-(3,4-dichlorobenzyl)-N-methylacetamide], the figure is 100 to 1000 nM; as for `N#Cc1cccc(-c2cc(NC(=O)C[C@H]3CCN(C#N)C3)no2)c1` [Example 55, (R)-N-(5-(3-cyanophenyl)isoxazol-3-yl)-2-(1-cyanopyrrolidin-3-yl)acetamide], 1 to 10 nM.
The result for `CN(C)C(=O)c1ccc(C2CN(C(=O)C[C@@H]3CCN(C#N)C3)C2)cc1` [Example 60, (S)-4-(1-(2-(1-cyanopyrrolidin-3-yl)acetyl)azetidin-3-yl)-N,N-dimethylbenzamide] reads 100 to 1000 nM.
For the compound `COc1cccc(C2CN(C(=O)CC3CCN(C#N)C3)C2)c1` (stereo not drawn) [Example 13, 3-(2-(3-(3-Methoxyphenyl)azetidin-1-yl)-2-oxoethyl)pyrrolidine-1-carbonitrile], the IC50 fell in the range of 100 to 1000 nM.
The result for `N#CN1CCC(CC(=O)NC2CN(c3ccccn3)C2)C1` (stereo not drawn) [Example 47, 2-(1-cyanopyrrolidin-3-yl)-N-(1-(pyridin-2-yl)azetidin-3-yl)acetamide] reads 100 to 1000 nM; that for `N#CN1CCC(CC(=O)Nc2ncc(-c3ccccc3)s2)C1` (stereo not drawn) [Example 10, 2-(1-Cyanopyrrolidin-3-yl)-N-(5-phenylthiazol-2-yl)acetamide], 100 to 1000 nM.
With `N#CN1CC[C@H](CC(=O)Nc2nnc(-c3ccccc3)s2)C1` [Example 63, (R)-2-(1-cyanopyrrolidin-3-yl)-N-(5-phenyl-1,3,4-thiadiazol-2-yl)acetamide], the half-maximal inhibitory concentration (IC50) was 1000 to 10000 nM.
Consider `N#CN1CCC(CC(=O)Nc2nc3ccc(Cl)cc3s2)C1` (stereo not drawn) [Example 5, N-(6-Chlorobenzo[d]thiazol-2-yl)-2-(1-cyanopyrrolidin-3-yl)acetamide], for which the IC50 lay in the range of 100 to 1000 nM.
As for `N#CN1CCC(=CC(=O)Nc2ccc(Cl)c(C(F)(F)F)c2)C1` [Example 20, N-(4-Chloro-3-(trifluoromethyl)phenyl)-2-(1-cyanopyrrolidin-3-ylidene)acetamide], the figure is 100 to 1000 nM; as for `COc1ccc(C2CN(C(=O)C[C@@H]3CCN(C#N)C3)C2)cc1-c1ccn[nH]1` [Example 39, (S)-3-(2-(3-(4-Methoxy-3-(1H-pyrazol-5-yl)phenyl)azetidin-1-yl)-2-oxoethyl)pyrrolidine-1-carbonitrile], 10 to 100 nM; as for `CN(C(=O)C=C1CCN(C#N)C1)c1nc2ccccc2s1` [Example 32, N-(Benzo[d]thiazol-2-yl)-2-(1-cyanopyrrolidin-3-ylidene)-N-methylacetamide], 100 to 1000 nM.
The result for `COc1ccc(C2CN(C(=O)CC3CCN(C#N)C3)C2)cc1` (stereo not drawn) [Example 1, 3-(2-(3-(4-Methoxyphenyl)azetidin-1-yl)-2-oxoethyl)pyrrolidine-1-carbonitrile] reads 100 to 1000 nM; that for `CN(Cc1ccc(N2CCCC2)cc1)C(=O)C=C1CCN(C#N)C1` [Example 28, 2-(1-Cyanopyrrolidin-3-ylidene)-N-methyl-N-(4-(pyrrolidin-1-yl)benzyl)acetamide], 100 to 1000 nM.
